The values that follow are results of earlier work, collected in patent publication EP0890570A2, “Tertiary alkyl primary amines and process for preparing the same” (ROHM AND HAAS COMPANY, priority 1997, dated 1999).

The conditions of this data set: conventional comparison amines, stated without source or method.

As a reminder, the pKa is the pH at which an ionisable group is half protonated. `CC(C)CCCCCCN` [iso-nonylamine]: the pKa is 10.

Consider `CCCCCCCCCN` [n-nonylamine], for which the pKa is on record as 10.
